{"source": "PubChem BioAssay AID2060902", "about": "(Molecular Pharmacology Branch, DTP, NCI, 2025)", "system": "485368-065-R3-J5-PDC spheroids with HUVEC/MSC, viability", "assay": "Anticancer human tumor 485368-065-R3-J5-PDC patient-derived pancreatic carcinoma cell line growth inhibition [RAS]", "conditions": "for pIC50: curve of first compound; for viability, T/C: stronger effect = lower value", "outline": "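Agents were tested in combination matrices in half-log decrements from a top concentration at or near clinical Cmax (10 microM if undetermined). Targets were multi-cell spheroids of tumour lines plus HUVEC and MSC stromal cells.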", "key": {"[1]": {"conditions": "second compound 0.0316 µM, first compound 0.0316 µM"}, "[2]": {"conditions": "second compound 0.0316 µM, first compound 0.1 µM"}, "[3]": {"conditions": "second compound 0.0316 µM, first compound 0.316 µM"}, "[4]": {"conditions": "second compound 0.0316 µM, first compound 1 µM"}, "[5]": {"conditions": "second compound 0.1 µM, first compound 0.0316 µM"}, "[6]": {"conditions": "second compound 0.1 µM, first compound 0.1 µM"}, "[7]": {"conditions": "second compound 0.1 µM, first compound 0.316 µM"}, "[8]": {"conditions": "second compound 0.1 µM, first compound 1 µM"}, "[9]": {"conditions": "second compound 0.316 µM, first compound 0.0316 µM"}, "[10]": {"conditions": "second compound 0.316 µM, first compound 0.1 µM"}, "[11]": {"conditions": "second compound 0.316 µM, first compound 0.316 µM"}, "[12]": {"conditions": "second compound 0.316 µM, first compound 1 µM"}, "[13]": {"conditions": "second compound 1 µM, first compound 0.0316 µM"}, "[14]": {"conditions": "second compound 1 µM, first compound 0.1 µM"}, "[15]": {"conditions": "second compound 1 µM, first compound 0.316 µM"}, "[16]": {"conditions": "second compound 1 µM, first compound 1 µM"}, "[17]": {"conditions": "second compound 3.16 µM, first compound 0.0316 µM"}, "[18]": {"conditions": "second compound 3.16 µM, first compound 0.1 µM"}, "[19]": {"conditions": "second compound 3.16 µM, first compound 0.316 µM"}, "[20]": {"conditions": "second compound 3.16 µM, first compound 1 µM"}, "[21]": {"conditions": "second compound 10 µM, first compound 0.0316 µM"}, "[22]": {"conditions": "second compound 10 µM, first compound 0.1 µM"}, "[23]": {"conditions": "second compound 10 µM, first compound 0.316 µM"}, "[24]": {"conditions": "second compound 10 µM, first compound 1 µM"}}, "note": "pIC50: −log10 of the molar value.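 Further: spheroids exposed to agents for seven days before readout.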", "data": [{"smiles": "C=CC(=O)N1CCN(c2nc(OCC3CCCN3C)nc3c(F)c(-c4nc(N)cc(C)c4C(F)(F)F)c(Cl)cc23)C(C)C1", "note": "(centres undefined) + C#Cc1c(F)ccc2cc(O)cc(-c3ncc4c(N5CC6CCC(C5)N6)nc(OCC56CCCN5CC(F)C6)nc4c3F)c12", "values": [{"measurement": "pIC50", "setting": "second compound 0.0316 µM", "result": "< 6.00"}, {"measurement": "pIC50", "setting": "second compound 0.1 µM", "result": "< 6.00"}, {"measurement": "pIC50", "setting": "second compound 0.316 µM", "result": "< 6.00"}, {"measurement": "pIC50", "setting": "second compound 1 µM", "result": "< 6.00"}, {"measurement": "pIC50", "setting": "second compound 3.16 µM", "result": 6.10}, {"measurement": "pIC50", "setting": "second compound 10 µM", "result": "> 8.50"}, {"measurement": "viability, T/C", "setting": "second compound 0.0316 µM, first compound 0.00316 µM", "result": 101, "unit": "%"}, {"measurement": "viability, T/C", "setting": "second compound 0.0316 µM, first compound 0.01 µM", "result": 95.6, "unit": "%"}, {"measurement": "viability, T/C", "setting": "[1]", "result": 112, "unit": "%"}, {"measurement": "viability, T/C", "setting": "[2]", "result": 106, "unit": "%"}, {"measurement": "viability, T/C", "setting": "[3]", "result": 100, "unit": "%"}, {"measurement": "viability, T/C", "setting": "[4]", "result": 107, "unit": "%"}, {"measurement": "viability, T/C", "setting": "second compound 0.1 µM, first compound 0.00316 µM", "result": 102, "unit": "%"}, {"measurement": "viability, T/C", "setting": "second compound 0.1 µM, first compound 0.01 µM", "result": 100, "unit": "%"}, {"measurement": "viability, T/C", "setting": "[5]", "result": 106, "unit": "%"}, {"measurement": "viability, T/C", "setting": "[6]", "result": 101, "unit": "%"}, {"measurement": "viability, T/C", "setting": "[7]", "result": 117, "unit": "%"}, {"measurement": "viability, T/C", "setting": "[8]", "result": 110, "unit": "%"}, {"measurement": "viability, T/C", "setting": "second compound 0.316 µM, first compound 0.00316 µM", "result": 105, "unit": "%"}, {"measurement": "viability, T/C", "setting": "second compound 0.316 µM, first compound 0.01 µM", "result": 104, "unit": "%"}, {"measurement": "viability, T/C", "setting": "[9]", "result": 93.6, "unit": "%"}, {"measurement": "viability, T/C", "setting": "[10]", "result": 98.5, "unit": "%"}, {"measurement": "viability, T/C", "setting": "[11]", "result": 103, "unit": "%"}, {"measurement": "viability, T/C", "setting": "[12]", "result": 101, "unit": "%"}, {"measurement": "viability, T/C", "setting": "second compound 1 µM, first compound 0.00316 µM", "result": 94.3, "unit": "%"}, {"measurement": "viability, T/C", "setting": "second compound 1 µM, first compound 0.01 µM", "result": 95.9, "unit": "%"}, {"measurement": "viability, T/C", "setting": "[13]", "result": 98.7, "unit": "%"}, {"measurement": "viability, T/C", "setting": "[14]", "result": 97.6, "unit": "%"}, {"measurement": "viability, T/C", "setting": "[15]", "result": 94.8, "unit": "%"}, {"measurement": "viability, T/C", "setting": "[16]", "result": 72.1, "unit": "%"}, {"measurement": "viability, T/C", "setting": "second compound 3.16 µM, first compound 0.00316 µM", "result": 89.7, "unit": "%"}, {"measurement": "viability, T/C", "setting": "second compound 3.16 µM, first compound 0.01 µM", "result": 83.2, "unit": "%"}, {"measurement": "viability, T/C", "setting": "[17]", "result": 81.7, "unit": "%"}, {"measurement": "viability, T/C", "setting": "[18]", "result": 72.3, "unit": "%"}, {"measurement": "viability, T/C", "setting": "[19]", "result": 71.2, "unit": "%"}, {"measurement": "viability, T/C", "setting": "[20]", "result": 44.4, "unit": "%"}, {"measurement": "viability, T/C", "setting": "second compound 10 µM, first compound 0.00316 µM", "result": 38.1, "unit": "%"}, {"measurement": "viability, T/C", "setting": "second compound 10 µM, first compound 0.01 µM", "result": 40.3, "unit": "%"}, {"measurement": "viability, T/C", "setting": "[21]", "result": 38.3, "unit": "%"}, {"measurement": "viability, T/C", "setting": "[22]", "result": 41.7, "unit": "%"}, {"measurement": "viability, T/C", "setting": "[23]", "result": 36.5, "unit": "%"}, {"measurement": "viability, T/C", "setting": "[24]", "result": 36.6, "unit": "%"}]}, {"smiles": "CC(=O)OC12COC1CC(O)C1(C)C(=O)C(O)C3=C(C)C(OC(=O)C(O)C(NC(=O)OC(C)(C)C)c4ccccc4)CC(O)(C(OC(=O)c4ccccc4)C21)C3(C)C", "note": "(centres undefined) + C#Cc1c(F)ccc2cc(O)cc(-c3ncc4c(N5CC6CCC(C5)N6)nc(OCC56CCCN5CC(F)C6)nc4c3F)c12", "values": [{"measurement": "pIC50", "setting": "second compound 0.0316 µM", "result": "> 7.50"}, {"measurement": "pIC50", "setting": "second compound 0.1 µM", "result": "> 7.50"}, {"measurement": "pIC50", "setting": "second compound 0.316 µM", "result": "> 7.50"}, {"measurement": "pIC50", "setting": "second compound 1 µM", "result": "> 7.50"}, {"measurement": "pIC50", "setting": "second compound 3.16 µM", "result": "> 7.50"}, {"measurement": "pIC50", "setting": "second compound 10 µM", "result": "> 7.50"}, {"measurement": "viability, T/C", "setting": "[1]", "result": 12.5, "unit": "%"}, {"measurement": "viability, T/C", "setting": "[2]", "result": 12.5, "unit": "%"}, {"measurement": "viability, T/C", "setting": "[3]", "result": 13, "unit": "%"}, {"measurement": "viability, T/C", "setting": "[4]", "result": 12.7, "unit": "%"}, {"measurement": "viability, T/C", "setting": "second compound 0.0316 µM, first compound 3.16 µM", "result": 18.7, "unit": "%"}, {"measurement": "viability, T/C", "setting": "second compound 0.0316 µM, first compound 10 µM", "result": 23.6, "unit": "%"}, {"measurement": "viability, T/C", "setting": "[5]", "result": 11, "unit": "%"}, {"measurement": "viability, T/C", "setting": "[6]", "result": 10.2, "unit": "%"}, {"measurement": "viability, T/C", "setting": "[7]", "result": 14.2, "unit": "%"}, {"measurement": "viability, T/C", "setting": "[8]", "result": 14.4, "unit": "%"}, {"measurement": "viability, T/C", "setting": "second compound 0.1 µM, first compound 3.16 µM", "result": 19.8, "unit": "%"}, {"measurement": "viability, T/C", "setting": "second compound 0.1 µM, first compound 10 µM", "result": 16.9, "unit": "%"}, {"measurement": "viability, T/C", "setting": "[9]", "result": 13, "unit": "%"}, {"measurement": "viability, T/C", "setting": "[10]", "result": 13.3, "unit": "%"}, {"measurement": "viability, T/C", "setting": "[11]", "result": 17.1, "unit": "%"}, {"measurement": "viability, T/C", "setting": "[12]", "result": 14.9, "unit": "%"}, {"measurement": "viability, T/C", "setting": "second compound 0.316 µM, first compound 3.16 µM", "result": 15.4, "unit": "%"}, {"measurement": "viability, T/C", "setting": "second compound 0.316 µM, first compound 10 µM", "result": 14.4, "unit": "%"}, {"measurement": "viability, T/C", "setting": "[13]", "result": 11.2, "unit": "%"}, {"measurement": "viability, T/C", "setting": "[14]", "result": 13.9, "unit": "%"}, {"measurement": "viability, T/C", "setting": "[15]", "result": 12.4, "unit": "%"}, {"measurement": "viability, T/C", "setting": "[16]", "result": 16.5, "unit": "%"}, {"measurement": "viability, T/C", "setting": "second compound 1 µM, first compound 3.16 µM", "result": 14.7, "unit": "%"}, {"measurement": "viability, T/C", "setting": "second compound 1 µM, first compound 10 µM", "result": 26.3, "unit": "%"}, {"measurement": "viability, T/C", "setting": "[17]", "result": 11.3, "unit": "%"}, {"measurement": "viability, T/C", "setting": "[18]", "result": 9.14, "unit": "%"}, {"measurement": "viability, T/C", "setting": "[19]", "result": 12, "unit": "%"}, {"measurement": "viability, T/C", "setting": "[20]", "result": 15.7, "unit": "%"}, {"measurement": "viability, T/C", "setting": "second compound 3.16 µM, first compound 3.16 µM", "result": 19.1, "unit": "%"}, {"measurement": "viability, T/C", "setting": "second compound 3.16 µM, first compound 10 µM", "result": 16.1, "unit": "%"}, {"measurement": "viability, T/C", "setting": "[21]", "result": 12.9, "unit": "%"}, {"measurement": "viability, T/C", "setting": "[22]", "result": 11.2, "unit": "%"}, {"measurement": "viability, T/C", "setting": "[23]", "result": 10.8, "unit": "%"}, {"measurement": "viability, T/C", "setting": "[24]", "result": 14.3, "unit": "%"}, {"measurement": "viability, T/C", "setting": "second compound 10 µM, first compound 3.16 µM", "result": 14.7, "unit": "%"}, {"measurement": "viability, T/C", "setting": "second compound 10 µM, first compound 10 µM", "result": 19.1, "unit": "%"}]}]}
